Measurements from patent US12077503B2, “Substituted cyclic amides and their use as herbicides” (FMC CORPORATION, priority 2015, dated 2024).

Experiments:
Format in all cases: in vivo
[1] = system: Galium (catchweed bedstraw, Galium aparine); assay: Test A postemergence; details: for Galium plant response rating: 125 g ai/ha, visual injury rating on 0 to 100 scale (0 no effect, 100 complete control), approx. 10 d; for Plant response rating, Galium: 500 g ai/ha
Excerpt: (§1) Seeds of plant species selected from barnyardgrass (Echinochloa crus-galli), Kochia (Kochia scoparia), ragweed (common ragweed, Ambrosia elatior), ryegrass, Italian (Italian ryegrass, Lolium multiflorum), crabgrass, large (Digitaria sanguinalis), giant foxtail (Setaria faberii), green foxtail (Setaria viridis), morningglory (Ipomoea spp.), pigweed (Amaranthus retroflexus), velvetleaf (Abutilon theophrasti), wheat (Triticum aestivum), and corn (Zea mays) were planted into a blend of loam soil and sand and treated preemergence with a directed soil spray using test chemicals formulated in anon-phytotoxic solvent mixture which included a surfactant.
(§2) At the same time, plants selected from these crop and weed species and also blackgrass (Alopecurus myosuroides), and Galium (catchweed bedstraw, Galium aparine) were planted in pots containing the same blend of loam soil and sand and treated with postemergence applications of test chemicals formulated in the same manner. Plants ranged in height from 2 to 10 cm and were in the one- to two-leaf stage for the postemergence treatment. Treated plants and untreated controls were maintained in a greenhouse for approximately 10 d, after which time all treated plants were compared to untreated controls and visually evaluated for injury. Plant response ratings, summarized in Table A, are based on a 0 to 100 scale where 0 is no effect and 100 is complete control. A dash (-) response means no test result.

[2] = system: pigweed (Amaranthus retroflexus); assay: Test A postemergence; details: for Pigweed plant response rating: 125 g ai/ha, visual injury rating on 0 to 100 scale (0 no effect, 100 complete control), approx. 10 d; for Plant response rating, Pigweed: 500 g ai/ha
Excerpt: as §1, §2

[3] = system: giant foxtail (Setaria faberii); assay: Test A postemergence; details: for Foxtail, Giant plant response rating: 125 g ai/ha, visual injury rating on 0 to 100 scale (0 no effect, 100 complete control), approx. 10 d; for Plant response rating, Foxtail, Giant: 500 g ai/ha
Excerpt: as §1, §2

[4] = system: Kochia (Kochia scoparia); assay: Test A postemergence; details: for Kochia plant response rating: 125 g ai/ha, visual injury rating on 0 to 100 scale (0 no effect, 100 complete control), approx. 10 d; for Plant response rating, Kochia: 500 g ai/ha
Excerpt: as §1, §2

[5] = system: corn (Zea mays); assay: Test A postemergence; details: postemergence; for Corn plant response rating: 125 g ai/ha, visual injury rating on 0 to 100 scale (0 no effect, 100 complete control), approx. 10 d; for Plant response rating, Corn: 500 g ai/ha, 0 to 100 scale, 0 no effect, 100 complete control
Excerpt: as §1, §2

[6] = system: barnyardgrass (Echinochloa crus-galli); assay: Test A postemergence; details: postemergence; for Barnyardgrass plant response rating: 125 g ai/ha, visual injury rating on 0 to 100 scale (0 no effect, 100 complete control), approx. 10 d; for Plant response rating, Barnyardgrass: 500 g ai/ha, 0 to 100 scale, 0 no effect, 100 complete control
Excerpt: as §1, §2

[7] = system: ragweed (common ragweed, Ambrosia elatior); assay: Test A postemergence; details: for Ragweed plant response rating: 125 g ai/ha, visual injury rating on 0 to 100 scale (0 no effect, 100 complete control), approx. 10 d; for Plant response rating, Ragweed: 500 g ai/ha
Excerpt: as §1, §2

[8] = system: blackgrass (Alopecurus myosuroides); assay: Test A postemergence; details: postemergence; for Blackgrass plant response rating: 125 g ai/ha, visual injury rating on 0 to 100 scale (0 no effect, 100 complete control), approx. 10 d; for Plant response rating, Blackgrass: 500 g ai/ha, 0 to 100 scale, 0 no effect, 100 complete control
Excerpt: as §1, §2

[9] = system: ryegrass, Italian (Italian ryegrass, Lolium multiflorum); assay: Test A postemergence; details: for Ryegrass, Italian plant response rating: 125 g ai/ha, visual injury rating on 0 to 100 scale (0 no effect, 100 complete control), approx. 10 d; for Plant response rating, Ryegrass, Italian: 500 g ai/ha
Excerpt: as §1, §2

[10] = system: wheat (Triticum aestivum); assay: Test A postemergence; details: for Wheat plant response rating: 125 g ai/ha, visual injury rating on 0 to 100 scale (0 no effect, 100 complete control), approx. 10 d; for Plant response rating, Wheat: 500 g ai/ha
Excerpt: as §1, §2

[11] = system: rice (Oryra sativa); assay: Test B flooded paddy test; details: Flood, 250 g ai/ha; 0 to 100 scale where 0 is no effect and 100 is complete control; 13 to 15 d
Procedure: (§3) Plant species in the flooded paddy test selected from rice (Oryra sativa), sedge, umbrella (small-flower umbrella sedge, Cyperus difformis), ducksalad (Heteranthera limosa), and barnyardgrass (Echinochloa crus-galli) were grown to the 2-leaf stage for testing. At time of treatment, test pots were flooded to 3 cm above the soil surface, treated by application of test compounds directly to the paddy water, and then maintained at that water depth for the duration of the test. Treated plants and controls were maintained in a greenhouse for 13 to 15 d, after which time all species were compared to controls and visually evaluated. Plant response ratings, summarized in Table B, are based on a scale of 0 to 100 where 0 is no effect and 100 is complete control. A dash (-) response means no test result.

[12] = system: ducksalad (Heteranthera limosa); assay: Test B flooded paddy test; details: Flood, 250 g ai/ha; 0 to 100 scale where 0 is no effect and 100 is complete control; 13 to 15 d
Procedure: as §3

[13] = system: barnyardgrass (Echinochloa crus-galli); assay: Test B flooded paddy test; details: Flood, 250 g ai/ha; 0 to 100 scale where 0 is no effect and 100 is complete control; 13 to 15 d
Procedure: as §3

[14] = system: sedge, umbrella (small-flower umbrella sedge, Cyperus difformis); assay: Test B flooded paddy test; details: Flood, 250 g ai/ha; 0 to 100 scale where 0 is no effect and 100 is complete control; 13 to 15 d
Procedure: as §3

[15] = system: pigweed (Amaranthus retroflexus); assay: Test A preemergence; details: for Plant response rating, Pigweed: 125 g ai/ha; for Pigweed plant response rating (0 to 100 scale, 0 is no effect, 100 is complete control): 500 g ai/ha, visual injury approx. 10 d
Excerpt: as §1, §2

[16] = system: giant foxtail (Setaria faberii); assay: Test A preemergence; details: for Plant response rating, Foxtail, Giant: 125 g ai/ha, preemergence, 0 to 100 scale (0 no effect, 100 complete control); for Foxtail, Giant plant response rating (0 to 100 scale, 0 is no effect, 100 is complete control): Preemergence, 500 g ai/ha, visual injury approx. 10 d
Excerpt: as §1, §2

[17] = system: Kochia (Kochia scoparia); assay: Test A preemergence; details: for Plant response rating, Kochia: 125 g ai/ha, preemergence, 0 to 100 scale (0 no effect, 100 complete control); for Kochia plant response rating (0 to 100 scale, 0 is no effect, 100 is complete control): Preemergence, 500 g ai/ha, visual injury approx. 10 d
Excerpt: as §1, §2

[18] = system: barnyardgrass (Echinochloa crus-galli); assay: Test A preemergence; details: for Plant response rating, Barnyardgrass: 125 g ai/ha, preemergence, 0 to 100 scale (0 no effect, 100 complete control); for Barnyardgrass plant response rating (0 to 100 scale, 0 is no effect, 100 is complete control): Preemergence, 500 g ai/ha, visual injury approx. 10 d
Excerpt: as §1, §2

[19] = system: ragweed (common ragweed, Ambrosia elatior); assay: Test A preemergence; details: for Plant response rating, Ragweed: 125 g ai/ha; for Ragweed plant response rating (0 to 100 scale, 0 is no effect, 100 is complete control): 500 g ai/ha, visual injury approx. 10 d
Excerpt: as §1, §2

[20] = system: ryegrass, Italian (Italian ryegrass, Lolium multiflorum); assay: Test A preemergence; details: for Plant response rating, Ryegrass, Italian: 125 g ai/ha; for Ryegrass, Italian plant response rating (0 to 100 scale, 0 is no effect, 100 is complete control): 500 g ai/ha, visual injury approx. 10 d
Excerpt: as §1, §2

[21] = Postemergence, 0 to 100 scale where 0 is no effect and 100 is complete control
[22] = Preemergence, visual injury after approximately 10 d, 0 to 100 scale where 0 is no effect and 100 is complete control
[23] = postemergence, 0 to 100 scale, 0 no effect, 100 complete control
[24] = preemergence, 0 to 100 scale (0 no effect, 100 complete control)

SMILES: CC(C)=CCN1CC(c2cccc(C(F)(F)F)c2)C(C(=O)Nc2ccccc2F)C1=O (stereo not drawn) [Compound 478]
- Galium plant response rating ([1]; postemergence): 0
- Plant response rating, Galium [1, 21]: 0
- Pigweed plant response rating ([2]; postemergence): 0
- Plant response rating, Pigweed [2, 21]: 0
- Foxtail, Giant plant response rating ([3]; postemergence): 20
- Plant response rating, Foxtail, Giant [3, 21]: 60
- Kochia plant response rating ([4]; postemergence): 0
- Plant response rating, Kochia [4, 21]: 0
- Corn plant response rating [5]: 0
- Plant response rating, Corn [5]: 0
- Barnyardgrass plant response rating [6]: 30
- Plant response rating, Barnyardgrass [6]: 60
- Ragweed plant response rating ([7]; postemergence): 0
- Plant response rating, Ragweed [7, 21]: 0
- Blackgrass plant response rating [8]: 0
- Plant response rating, Blackgrass [8]: 20
- Ryegrass, Italian plant response rating ([9]; postemergence): 0
- Plant response rating, Ryegrass, Italian [9, 21]: 20
- Wheat plant response rating ([10]; postemergence): 0
- Plant response rating, Wheat [10, 21]: 20
- Plant response rating, Rice [11]: 0
- Plant response rating, Ducksalad [12]: 0
- Plant response rating, Barnyardgrass [13]: 0
- Plant response rating, Sedge, Umbrella [14]: 0
- Plant response rating, Pigweed [15, 22]: 0
- Pigweed plant response rating (0 to 100 scale, 0 is no effect, 100 is complete control) ([15]; Preemergence): 0
- Plant response rating, Foxtail, Giant [16]: 70
- Foxtail, Giant plant response rating (0 to 100 scale, 0 is no effect, 100 is complete control) [16]: 80
- Plant response rating, Kochia [17]: 0
- Kochia plant response rating (0 to 100 scale, 0 is no effect, 100 is complete control) [17]: 0
- Plant response rating, Barnyardgrass [18]: 20
- Barnyardgrass plant response rating (0 to 100 scale, 0 is no effect, 100 is complete control) [18]: 60
- Plant response rating, Ragweed [19, 22]: 0
- Ragweed plant response rating (0 to 100 scale, 0 is no effect, 100 is complete control) ([19]; Preemergence): 0
- Plant response rating, Ryegrass, Italian [20, 22]: 0
- Ryegrass, Italian plant response rating (0 to 100 scale, 0 is no effect, 100 is complete control) ([20]; Preemergence): 0

SMILES: CN1CC(c2ccc(F)cc2)C(C(=O)Nc2ccccc2S(C)(=O)=O)C1=O (stereo not drawn) [Compound 439]
- Galium plant response rating ([1]; postemergence): 40
- Plant response rating, Galium [1, 23]: 50
- Pigweed plant response rating ([2]; postemergence): 40
- Plant response rating, Pigweed [2, 23]: 50
- Foxtail, Giant plant response rating ([3]; postemergence): 90
- Plant response rating, Foxtail, Giant [3, 23]: 90
- Kochia plant response rating ([4]; postemergence): 30
- Plant response rating, Kochia [4, 23]: 70
- Corn plant response rating [5]: 0
- Plant response rating, Corn [5]: 20
- Barnyardgrass plant response rating [6]: 90
- Plant response rating, Barnyardgrass [6]: 90
- Ragweed plant response rating ([7]; postemergence): 0
- Plant response rating, Ragweed [7, 23]: 20
- Blackgrass plant response rating [8]: 0
- Plant response rating, Blackgrass [8]: 60
- Ryegrass, Italian plant response rating ([9]; postemergence): 0
- Plant response rating, Ryegrass, Italian [9, 23]: 30
- Wheat plant response rating ([10]; postemergence): 0
- Plant response rating, Wheat [10, 23]: 40
- Plant response rating, Rice [11]: 0
- Plant response rating, Ducksalad [12]: 100
- Plant response rating, Barnyardgrass [13]: 40
- Plant response rating, Sedge, Umbrella [14]: 0
- Plant response rating, Pigweed [15, 24]: 50
- Pigweed plant response rating (0 to 100 scale, 0 is no effect, 100 is complete control) ([15]; Preemergence): 80
- Plant response rating, Foxtail, Giant [16]: 90
- Foxtail, Giant plant response rating (0 to 100 scale, 0 is no effect, 100 is complete control) [16]: 100
- Plant response rating, Kochia [17]: 70
- Kochia plant response rating (0 to 100 scale, 0 is no effect, 100 is complete control) [17]: 70
- Plant response rating, Barnyardgrass [18]: 90
- Barnyardgrass plant response rating (0 to 100 scale, 0 is no effect, 100 is complete control) [18]: 90
- Plant response rating, Ragweed [19, 24]: 0
- Ragweed plant response rating (0 to 100 scale, 0 is no effect, 100 is complete control) ([19]; Preemergence): 60
- Plant response rating, Ryegrass, Italian [20, 24]: 0
- Ryegrass, Italian plant response rating (0 to 100 scale, 0 is no effect, 100 is complete control) ([20]; Preemergence): 50
